Assay results published in US4233403A, “Amylase assay” (E. I. Du Pont de Nemours and Company, priority 1978, dated 1980).
Where “and” joins values, the source holds several entries; their conditions need not be identical. Equal values may be shown once.

Tests used:
[1] = system: α-amylase; assay: cleavage of α-(4-nitrophenyl)maltoside by α-amylase; type: biochemical, human
Description: A. P. Jansen and P. G. A. B. Wydeveld, Nature, 182, 525 (1958) postulate that α-(p-nitrophenyl)maltoside could be a substrate for an amylase assay. […] They reported: (1) Incubation of samples of human urine, saliva, duodenal contents and only incidentally serum with α-(p-nitrophenyl)maltoside at 37° for 16 hours produces 4-nitrophenol, identified spectrophotometrically by mixing the hydrolyzate with 0.02 N sodium hydroxide. (2) The hydrolysis was inhibited by protein precipitants such as 10% trichloroacetic acid and 0.5 N silver nitrate. […] In contrast to the teaching of Jansen et al., the method of this invention produces amylase analyses in one hour or less.

[2] = system: α-amylase; assay: amylase assay with nitrophenyl oligosaccharide substrate plus α-glucosidase, rate at 410 nm, standard curve; type: biochemical; details: for Sensitivity: 4 mg/3 ml G4 pNp, 7.5 IU/3 ml α-glucosidase, pH 6.5, 37° C., 410 nm, from standard curve
Description: A sample of α-(4-nitrophenyl) maltotetraoside (G4 pNp) prepared in accordance with Example 1H of U.S. Patent Application Ser. No. 704,975, filed on the same day as this application, was dissolved in 66.7 mM sodium phosphate buffer, pH 6.5, to provide various substrate concentrations ranging from 2 to 8 mg/3 ml. As described in U.S. Ser. No. 704,975, this substrate sample has been purified using a Sephadex® LH-20 Chromatographic Column. α-Glucosidase of various concentrations ranging from 2.5 to 12.5 International Units per three milliliters of solution (IU/3 ml) was then added to the substrate solution and the volume of the solution was brought up to 3.0 ml. The solution was incubated at 37° C. for 1 to 10 minutes.
(§1) After the blank rate was measured at 410 nm, using a Gilford spectrophotometer, the reaction was initiated by adding 0.1 ml of an Elevated Enzyme Control Product sold by the E. I. du Pont de Nemours and Company (1150 Somogyi Units per deciliter (SU/dl) amylase) diluted 1:1 with Du Pont Enzyme Diluent. This level of amylase is approximately six times the upper normal serum level. The total reaction rate was then measured using the Gilford spectrophotometer, and by subtracting the blank rate from the total rate, the net reaction rate was obtained.
Using these optimum values of G4 pNp and α-glucosidase in a reaction solution of 3 ml, the reaction rates for various amylase sample concentrations were measured and a standard curve was generated. From this curve, the sensitivity in mA/min/SU/dl was measured. The standard curve for this sample is given in FIG. 1; the blank rate and sensitivity are given for this and other examples in Table II.
(§2) The G4 pNp so formed was dissolved in 66.7 mM sodium phosphate buffer, pH 6.5, to provide a substrate concentration of 4 mg/3 ml. Then 7.5 IU/3 ml of α-glucosidase was added to the substrate solution and the volume of the solution was brought up to 3.0 ml. The solution was incubated at 37° C. for one to ten minutes.
(§3) After the blank rate was measured, as described in Example 1 above, the reaction was […] by adding 0.1 ml of Du Pont Elevated Enzyme Control Product, diluted 1:1 with Du Pont Enzyme Diluent. The reaction rates for various amylase sample concentrations were measured as discussed in Example 1 above, and a standard curve was generated. From this curve, the sensitivity in mA/min/SU/dl was measured.
as §2, with “A sample of α-(4-nitrophenyl) maltotetraoside, prepared in accordance with Example 1G of U.S. Patent Application Ser. No. 704,975,” for “The G4 pNp so formed”
(§4) After the blank rate was measured in a Gilford spectrophotometer at 410 nm, the reaction was initiated by adding 0.1 ml of the Du Pont Elevated Enzyme Control Product, diluted 1:1 with Du Pont Enzyme Diluent. The reaction rates for the various amylase sample concentrations were measured, using the Gilford spectrophotometer, and a standard curve was generated. From this curve, the sensitivity in mA/min/SU/dl was measured.
A sample of α-(4-nitrophenyl) maltopentaoside (G5 pNp), prepared in accordance with Example 2E of U.S. Patent Application Ser. No. 704,975, was dissolved in 66.7 mM sodium phosphate buffer, pH 6.5, to provide various substrate concentrations ranging from 4.0 to 12.0 mg/3 ml. α-Glucosidase of various activity ranging from 15 to 45 IU/3 ml was then added to the substrate solution and the volume of the solution was brought up to 3.0 ml. The solution was incubated at 37° C. for one to ten minutes.
Initial tests were conducted using 4.0 mg/3 ml G5 pNp and three α-glucosidase concentrations, 7.0, 14.0, and 28.0 IU/3 ml. […]

[3] = system: α-glucosidase; assay: blank rate: release of 4-nitrophenol from the substrate by the maltase without amylase; type: biochemical
Source text: When a maltase, such as α-glucosidase is used, a side reaction which gives rise to a blank rate occurs because of the reactivity of the maltase with the substrate. This means that even in the absence of α-amylase, there will be release of the phenol. Since the maximum velocity of product release from maltase decreases with increasing n, the growth of a blank rate is slower as n increases. One would expect, then, that the blank rate for G5 would be less than that for G4. This is verified by experimentation. However, an additional factor is involved in the choice between higher and lower oligosaccharides (i.e., G4 or G5) as the substrate. In all reactions of the substrate with amylase and reactions of maltase with the substrate, the rate increases, as a function of substrate concentration, to an optimum, at which point it levels off. The substrate concentration at which optimization occurs appears to increase with increasing n so that more of the substrate (and the maltase) must be used to optimize (linearize) the standard curve. For expensive chemicals, this is an important consideration.
A sample of α-(4-nitrophenyl) maltotetraoside (G4 pNp) prepared in accordance with Example 1H of U.S. Patent Application Ser. No. 704,975, filed on the same day as this application, was dissolved in 66.7 mM sodium phosphate buffer, pH 6.5, to provide various substrate concentrations ranging from 2 to 8 mg/3 ml. […]
as §1, with “This level of amylase is approximately six times the upper normal serum level.” left out, “obtained. […]” for “obtained.”
as §3, with “measured. […]” for “measured.”
as §4, with “measured. […]” for “measured.”

[4] = 4 mg/3 ml G4 pNp, 7.5 IU/3 ml α-glucosidase, 66.7 mM sodium phosphate pH 6.5, 37° C., 410 nm, no amylase

SMILES	Sensitivity [2]	Blank Rate [3, 4]	also measured
O=[N+]([O-])c1ccc(O[C@H]2O[C@H](CO)[C@@H](O[C@H]3O[C@H](CO)[C@@H](O)[C@H](O)[C@H]3O)[C@H](O)[C@H]2O)cc1 [α-(4-Nitrophenyl)maltoside]	–	–	cleavage of this compound by α-amylase [1]: extremely slow
O=[N+]([O-])c1ccc(O[C@H]2O[C@H](CO)[C@@H](O[C@H]3O[C@H](CO)[C@@H](O[C@H]4O[C@H](CO)[C@@H](O[C@H]5O[C@H](CO)[C@@H](O)[C@H](O)[C@H]5O)[C@H](O)[C@H]4O)[C@H](O)[C@H]3O)[C@H](O)[C@H]2O)cc1 [Example 1, α-(4-nitrophenyl) maltotetraoside]	0.115 mA/min/SU/dl	5.0 mA/min	–
O=[N+]([O-])c1ccc(O[C@H]2O[C@H](CO)[C@@H](O[C@H]3O[C@H](CO)[C@@H](O[C@H]4O[C@H](CO)[C@@H](O[C@H]5O[C@H](CO)[C@@H](O)[C@H](O)[C@H]5O)[C@H](O)[C@H]4O)[C@H](O)[C@H]3O)[C@H](O)[C@H]2O)cc1 [Example 3, α-(4-nitrophenyl) maltotetraoside]	0.110 mA/min/SU/dl	10.3-13.3 mA/min and 10.3 to 13.3 mA/min	increase in sensitivity, end point determination after quenching ([2]; reaction quenched after five minutes with 0.2 M Na2CO3 or 0.002 N NaOH, versus rate assay at pH 6.5): five to ten fold
O=[N+]([O-])c1ccc(O[C@H]2O[C@H](CO)[C@@H](O[C@H]3O[C@H](CO)[C@@H](O[C@H]4O[C@H](CO)[C@@H](O[C@H]5O[C@H](CO)[C@@H](O)[C@H](O)[C@H]5O)[C@H](O)[C@H]4O)[C@H](O)[C@H]3O)[C@H](O)[C@H]2O)cc1 [Example 4, α-(4-nitrophenyl) maltotetraoside]	0.116 mA/min/SU/dl	3.0 mA/min	–
O=[N+]([O-])c1ccc(O[C@H]2O[C@H](CO)[C@@H](O[C@H]3O[C@H](CO)[C@@H](O[C@H]4O[C@H](CO)[C@@H](O[C@H]5O[C@H](CO)[C@@H](O)[C@H](O)[C@H]5O)[C@H](O)[C@H]4O)[C@H](O)[C@H]3O)[C@H](O)[C@H]2O)cc1 [Example 2, α-(4-nitrophenyl) maltotetraoside]	0.231 mA/min/SU/dl	–	–
O=[N+]([O-])c1ccc(O[C@H]2O[C@H](CO)[C@@H](O[C@H]3O[C@H](CO)[C@@H](O[C@H]4O[C@H](CO)[C@@H](O[C@H]5O[C@H](CO)[C@@H](O[C@H]6O[C@H](CO)[C@@H](O)[C@H](O)[C@H]6O)[C@H](O)[C@H]5O)[C@H](O)[C@H]4O)[C@H](O)[C@H]3O)[C@H](O)[C@H]2O)cc1 [G5 pNp, α-(4-nitrophenyl) maltopentaoside]	–	–	Sensitivity (estimated, non-linear curves) ([2]; 4.0 mg/3 ml G5 pNp, α-glucosidase 7.0, 14.0, 28.0 IU/3 ml): greater than 0.160 mA/min/IU/dl; Blank Rate ([3]; 4.0 mg/3 ml G5 pNp, α-glucosidase 7.0, 14.0 and 28.0 IU/3 ml (each case), pH 6.5, 37° C.): 3.0 mA/min
